Biological target: T1, human TPH1 (Homo sapiens, UniProt P17752)
T1 sequence (P17752 1-444): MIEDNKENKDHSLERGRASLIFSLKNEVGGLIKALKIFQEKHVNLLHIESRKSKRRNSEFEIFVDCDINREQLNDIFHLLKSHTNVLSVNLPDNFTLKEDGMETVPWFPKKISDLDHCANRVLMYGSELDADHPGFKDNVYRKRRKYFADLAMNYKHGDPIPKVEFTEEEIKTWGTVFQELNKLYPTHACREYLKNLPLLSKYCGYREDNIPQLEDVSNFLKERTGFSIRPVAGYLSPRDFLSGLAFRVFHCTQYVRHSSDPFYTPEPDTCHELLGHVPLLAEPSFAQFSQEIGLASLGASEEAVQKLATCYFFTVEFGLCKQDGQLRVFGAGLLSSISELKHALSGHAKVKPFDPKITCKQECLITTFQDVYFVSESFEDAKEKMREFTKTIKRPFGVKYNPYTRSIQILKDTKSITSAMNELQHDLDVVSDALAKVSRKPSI
Assay: biochemical
In short: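 Inhibition is derived from 5-hydroxy-L-tryptophan fluorescence (540 nm emission, 300 nm excitation) after perchloric acid stop, relative to DMSO vehicle. Recombinant full-length human enzyme (40-80 nM) reacts with 40 μM tryptophan plus 100 μM methyltetrahydropterin, pH 7.6 Tris/DTT/catalase, 15° C, 60 min.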

`O=C(COc1ccc2ccccc2c1)N1CCc2nc3cc(C(F)(F)F)ccn3c2C1c1ccc2c(c1)OCO2` (stereo not drawn) [Example 3.16.1, 1-(1-(benzo[d][1,3]dioxol-5-yl)-7-(trifluoromethyl)-3,4-dihydroimidazo[1,2-a:5,4-c′]dipyridin-2(1H)-yl)-2-(naphthalen-2-yloxy)ethan-1-one] and `O=C(COc1ccc2ccccc2c1)N1CCc2nc3cc(C(F)(F)F)ccn3c2C1c1ccc2c(c1)OCCO2` (stereo not drawn) [Example 3.17.1, 1-(1-(2,3-dihydrobenzo[b][1,4]dioxin-6-yl)-7-(trifluoromethyl)-3,4-dihydroimidazo[1,2-a:5,4-c′]dipyridin-2(1H)-yl)-2-(naphthalen-2-yloxy)ethan-1-one] are within 1.5-fold of each other in IC50: 150 nM for the first, 138 nM for the second.

First: COc1cc(F)c(C2c3c(nc4cc(C(F)(F)F)ccn34)CCN2C(=O)COc2ccc3ccccc3c2)cc1OC (stereo not drawn) [Example 3.18.1, 1-(1-(2-fluoro-4,5-dimethoxyphenyl)-7-(trifluoromethyl)-3,4-dihydroimidazo[1,2-a:5,4-c′]dipyridin-2(1H)-yl)-2-(naphthalen-2-yloxy)ethan-1-one]
Second: COc1cc(C2c3c(nc4cc(C(F)(F)F)ccn34)CCN2C(=O)COc2ccc3ccccc3c2)cnc1OC (stereo not drawn) [Example 3.19.1, 1-(1-(5,6-dimethoxypyridin-3-yl)-7-(trifluoromethyl)-3,4-dihydroimidazo[1,2-a:5,4-c′]dipyridin-2(1H)-yl)-2-(naphthalen-2-yloxy)ethan-1-one]
The IC50 of the first is 6-fold lower: 5 nM for the first, 30 nM for the second. The first is the more potent here.

`COc1cc(F)c(C2c3c(nc4cc(C(F)(F)F)ccn34)CCN2C(=O)COc2ccc(CN3CCOCC3)cc2Cl)cc1OC` (stereo not drawn) [Example 3.18.2, 2-(2-chloro-4-(morpholinomethyl)phenoxy)-1-(1-(2-fluoro-4,5-dimethoxyphenyl)-7-(trifluoromethyl)-3,4-dihydroimidazo[1,2-a:5,4-c′]dipyridin-2(1H)-yl)ethan-1-one] and `Cc1ccc(C2c3c(nc4cc(C(F)(F)F)ccn34)CCN2C(=O)COc2ccc(CN3CCOCC3)cc2Cl)c(F)c1` (stereo not drawn) [Example 3.22.1, 2-(2-chloro-4-(morpholinomethyl)phenoxy)-1-(1-(2-fluoro-4-methylphenyl)-7-(trifluoromethyl)-3,4-dihydroimidazo[1,2-a:5,4-c′]dipyridin-2(1H)-yl)ethan-1-one] are within 1.5-fold of each other in IC50: 5 nM for the first, 7 nM for the second.

First: COc1cc(F)c(C2c3c(nc4cc(C(F)(F)F)ccn34)CCN2C(=O)COc2ccc3c(c2)CN(C(=O)OC(C)(C)C)CC3)cc1OC (stereo not drawn) [Example 3.18.3, tert-butyl 7-(2-(1-(2-fluoro-4,5-dimethoxyphenyl)-7-(trifluoromethyl)-3,4-dihydroimidazo[1,2-a:5,4-c′]dipyridin-2(1H)-yl)-2-oxoethoxy)-3,4-dihydroisoquinoline-2(1H)-carboxylate]
Second: COc1cc(F)c(C2c3c(nc4cc(C(F)(F)F)ccn34)CCN2C(=O)COc2ccc3c(c2)CN(C(C)=O)CC3)cc1OC (stereo not drawn) [Example 3.18.6, 2-((2-acetyl-1,2,3,4-tetrahydroisoquinolin-7-yl)oxy)-1-(1-(2-fluoro-4,5-dimethoxyphenyl)-7-(trifluoromethyl)-3,4-dihydroimidazo[1,2-a:5,4-c′]dipyridin-2(1H)-yl)ethan-1-one]
The IC50 of the first is 1.5-fold higher: 9 nM for the first, 6 nM for the second. The second is the more potent here.

First: COc1cc(F)c(C2c3c(nc4cc(C(F)(F)F)ccn34)CCN2C(=O)COc2ccc3c(c2)CNCC3)cc1OC (stereo not drawn) [Example 3.18.4, 1-(1-(2-fluoro-4,5-dimethoxyphenyl)-7-(trifluoromethyl)-3,4-dihydroimidazo[1,2-a:5,4-c′]dipyridin-2(1H)-yl)-2-((1,2,3,4-tetrahydroisoquinolin-7-yl)oxy)ethan-1-one]
Second: COc1cc(F)c(C2c3c(nc4cc(C(F)(F)F)ccn34)CCN2C(=O)COc2ccc3c(c2)CN(C)CC3)cc1OC (stereo not drawn) [Example 3.18.5, 1-(1-(2-fluoro-4,5-dimethoxyphenyl)-7-(trifluoromethyl)-3,4-dihydroimidazo[1,2-a:5,4-c′]dipyridin-2(1H)-yl)-2-((2-methyl-1,2,3,4-tetrahydroisoquinolin-7-yl)oxy)ethan-1-one]
The IC50 of the first is 5.5-fold higher: 72 nM for the first, 13 nM for the second. The second is the more potent here.

Compared with `COc1cc(F)c(C2c3c(nc4cc(C(F)(F)F)ccn34)CCN2C(=O)COc2ccc3c(c2)CN(C(=O)CO)CC3)cc1OC` (stereo not drawn) [Example 3.18.7, 1-(1-(2-fluoro-4,5-dimethoxyphenyl)-7-(trifluoromethyl)-3,4-dihydroimidazo[1,2-a:5,4-c′]dipyridin-2(1H)-yl)-2-((2-(2-hydroxyacetyl)-1,2,3,4-tetrahydroisoquinolin-7-yl)oxy)ethan-1-one], `COc1cc(F)c(C2c3c(nc4cc(C(F)(F)F)ccn34)CCN2C(=O)COc2ccc(C3(N)COC3)cc2Cl)cc1OC` (stereo not drawn) [Example 3.18.9, 2-(4-(3-aminooxetan-3-yl)-2-chlorophenoxy)-1-(1-(2-fluoro-4,5-dimethoxyphenyl)-7-(trifluoromethyl)-3,4-dihydroimidazo[1,2-a:5,4-c′]dipyridin-2(1H)-yl)ethan-1-one] is 2.5-fold higher in IC50: 4 nM for the first, 10 nM for the second. The first is the more potent here.

Compared with `COc1cc(F)c(C2c3c(nc4cc(C(F)(F)F)ccn34)CCN2C(=O)COc2ccc(C3(N[S+]([O-])C(C)(C)C)COC3)cc2Cl)cc1OC` (stereo not drawn) [Example 3.18.8, N-(3-(3-chloro-4-(2-(1-(2-fluoro-4,5-dimethoxyphenyl)-7-(trifluoromethyl)-3,4-dihydroimidazo[1,2-a:5,4-c′]dipyridin-2(1H)-yl)-2-oxoethoxy)phenyl)oxetan-3-yl)-2-methylpropane-2-sulfinamide], `COc1cc(F)c(C2c3c(nc4cc(C(F)(F)F)ccn34)CCN2C(=O)COc2ccc(C3(N4CCOCC4)COC3)cc2Cl)cc1OC` (stereo not drawn) [Example 3.18.10, 2-(2-chloro-4-(3-morpholinooxetan-3-yl)phenoxy)-1-(1-(2-fluoro-4,5-dimethoxyphenyl)-7-(trifluoromethyl)-3,4-dihydroimidazo[1,2-a:5,4-c′]dipyridin-2(1H)-yl)ethan-1-one] is 1.9-fold lower in IC50: 48 nM for the first, 25 nM for the second.

`COc1ccc(C2c3c(nc4cc(C(F)(F)F)ccn34)CCN2C(=O)COc2ccc3ccccc3c2)nc1OC` (stereo not drawn) [Example 3.20.1, 1-(1-(5,6-dimethoxypyridin-2-yl)-7-(trifluoromethyl)-3,4-dihydroimidazo[1,2-a:5,4-c′]dipyridin-2(1H)-yl)-2-(naphthalen-2-yloxy)ethan-1-one] and `Cc1ccc(C2c3c(nc4cc(C(F)(F)F)ccn34)CCN2C(=O)COc2ccc3ccccc3c2)cc1` (stereo not drawn) [Example 3.23.1, 2-(naphthalen-2-yloxy)-1-(1-(p-tolyl)-7-(trifluoromethyl)-3,4-dihydroimidazo[1,2-a:5,4-c′]dipyridin-2(1H)-yl)ethan-1-one] are within 1.5-fold of each other in IC50: 53 nM for the first, 67 nM for the second.

Compared with `O=C(COc1ccc2ccccc2c1)N1CCc2nc3cc(C(F)(F)F)ccn3c2C1c1ncccc1F` (stereo not drawn) [Example 3.21.1, 1-(1-(3-fluoropyridin-2-yl)-7-(trifluoromethyl)-3,4-dihydroimidazo[1,2-a:5,4-c′]dipyridin-2(1H)-yl)-2-(naphthalen-2-yloxy)ethan-1-one], `Cc1cc(Cl)ccc1OCC(=O)N1CCc2nc3cc(C(F)(F)F)ccn3c2C1c1ncccc1F` (stereo not drawn) [Example 3.21.4, 2-(4-chloro-2-methylphenoxy)-1-(1-(3-fluoropyridin-2-yl)-7-(trifluoromethyl)-3,4-dihydroimidazo[1,2-a:5,4-c′]dipyridin-2(1H)-yl)ethan-1-one] is 6.7-fold higher in IC50: 69 nM for the first, 464 nM for the second. The first is the more potent here.

Compared with `O=C(COc1ccc(CN2CCOCC2)cc1Cl)N1CCc2nc3cc(C(F)(F)F)ccn3c2C1c1ncccc1F` (stereo not drawn) [Example 3.21.2, 2-(2-chloro-4-(morpholinomethyl)phenoxy)-1-(1-(3-fluoropyridin-2-yl)-7-(trifluoromethyl)-3,4-dihydroimidazo[1,2-a:5,4-c′]dipyridin-2(1H)-yl)ethan-1-one], `O=C(COc1ccc(N2CCOCC2)cc1Cl)N1CCc2nc3cc(C(F)(F)F)ccn3c2C1c1ncccc1F` (stereo not drawn) [Example 3.21.3, 2-(2-chloro-4-morpholinophenoxy)-1-(1-(3-fluoropyridin-2-yl)-7-(trifluoromethyl)-3,4-dihydroimidazo[1,2-a:5,4-c′]dipyridin-2(1H)-yl)ethan-1-one] is 3.9-fold lower in IC50: 345 nM for the first, 88 nM for the second.

Going from `Cc1ccc(C2c3c(nc4cc(C(F)(F)F)ccn34)CCN2C(=O)COc2cccnc2Cl)c(F)c1` (stereo not drawn) [Example 3.22.2, 2-((2-chloropyridin-3-yl)oxy)-1-(1-(2-fluoro-4-methylphenyl)-7-(trifluoromethyl)-3,4-dihydroimidazo[1,2-a:5,4-c′]dipyridin-2(1H)-yl)ethan-1-one] to `Cc1ccc(C2c3c(nc4cc(C(F)(F)F)ccn34)CCN2C(=O)COc2ccc(NS(C)(=O)=O)nc2Cl)c(F)c1` (stereo not drawn) [Example 3.22.5, N-(6-chloro-5-(2-(1-(2-fluoro-4-methylphenyl)-7-(trifluoromethyl)-3,4-dihydroimidazo[1,2-a:5,4-c′]dipyridin-2(1H)-yl)-2-oxoethoxy)pyridin-2-yl)methanesulfonamide], the IC50 falls from 44 nM to 15 nM (2.9-fold). The second is the more potent here.

Going from `Cc1ccc(C2c3c(nc4cc(C(F)(F)F)ccn34)CCN2C(=O)COc2nn(C)c(C(F)(F)F)c2Cl)c(F)c1` (stereo not drawn) [Example 3.22.3, 2-((4-chloro-1-methyl-5-(trifluoromethyl)-1H-pyrazol-3-yl)oxy)-1-(1-(2-fluoro-4-methylphenyl)-7-(trifluoromethyl)-3,4-dihydroimidazo[1,2-a:5,4-c′]dipyridin-2(1H)-yl)ethan-1-one] to `CCc1nc(C)ccc1OCC(=O)N1CCc2nc3cc(C(F)(F)F)ccn3c2C1c1ccc(C)cc1F` (stereo not drawn) [Example 3.22.4, 2-((2-ethyl-6-methylpyridin-3-yl)oxy)-1-(1-(2-fluoro-4-methylphenyl)-7-(trifluoromethyl)-3,4-dihydroimidazo[1,2-a:5,4-c′]dipyridin-2(1H)-yl)ethan-1-one], the IC50 falls from 33 nM to 17 nM (1.9-fold).
